Results on 3 compounds are retold here after patent US20230330254A1 (Regeneron Pharmaceuticals, Inc., priority 2022, published 2023).

Several values for one entry are separate records, joined by “and”; a condition that tells them apart may be missing. Equal values may be shown once. Read-outs that look alike come from different tables or passages of the source. *1 amine or outer side, *2 acyl side, *3 side chain or, on linkers, in order; H or OH if unused. Where a SMILES comes first, the peptide text is derived from it. Side-chain parts run from the residue outwards. [ ]: non-standard residue; d: D form. The star is where a group is joined. Bip(2'-Et-4'-O(CH2)4NH2) = CCc1cc(OCCCCN[*:3])ccc1-c1ccc(C[C@H](N[*:1])C(=O)[*:2])cc1; Bip(2'-Et,4'-O(CH2)4N3) = CCc1cc(OCCCCN=[N+]=[N-])ccc1-c1ccc(C[C@H](N)C(=O)O)cc1; Malonyl(2,2-Me2,histaminyl) = CC(C)(C(=O)NCCc1cnc[nH]1)C(=O)*; Nva(5-(3,5-Me2Ph)) = Cc1cc(C)cc(CCC[C@H](N)C(=O)O)c1; Ala(1H-tetrazol-5-yl) = N[C@@H](Cc1nnn[nH]1)C(=O)O; PEG8 = NCCOCCOCCOCCOCCOCCOCCOCCOCCC(=O)O; αMePhe(2-F) = C[C@](N)(Cc1ccccc1F)C(=O)O; DBCO = C1#Cc2ccccc2N(*)Cc2ccccc21; Suc = O=C(CCC(=O)[*:2])[*:1] A value given as a limit tells only on which side of the number the result lay.

Series [1] is described as follows: Water solubility of linker-payload. Format: physicochemical.
Series [2] deals with T1, human GLP1R (Homo sapiens, UniProt P43220). As to the kind of experiment: Luciferase reporter assay, HEK293/CRE-Luc/hGLP1R (Example 17). Format: cell-based. More on the design: engineered to express full-length human GLP1R, cynomolgus GLP1R; expressed in transfected cells; host or cells: HEK293/CRE-Luc. Particulars: HEK293/CRE-Luc/hGLP1R; for EC50: payloads and linker-payloads, experiments A-E, M2361 repeated in each, read-out: EC50. An outline of the steps: (§1)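 HEK293 cells carrying a CRE-driven firefly luciferase reporter were exposed to 3-fold serial dilutions of payloads or linker-payloads (12 points, 0.2% DMSO final) for 4–6 h, then luminescence was read. EC50 came from a four-parameter logistic fit; S/N is top RLU over untreated wells, and relative potency and S/N are referenced to M2361.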
T1 sequence (P43220 24-463): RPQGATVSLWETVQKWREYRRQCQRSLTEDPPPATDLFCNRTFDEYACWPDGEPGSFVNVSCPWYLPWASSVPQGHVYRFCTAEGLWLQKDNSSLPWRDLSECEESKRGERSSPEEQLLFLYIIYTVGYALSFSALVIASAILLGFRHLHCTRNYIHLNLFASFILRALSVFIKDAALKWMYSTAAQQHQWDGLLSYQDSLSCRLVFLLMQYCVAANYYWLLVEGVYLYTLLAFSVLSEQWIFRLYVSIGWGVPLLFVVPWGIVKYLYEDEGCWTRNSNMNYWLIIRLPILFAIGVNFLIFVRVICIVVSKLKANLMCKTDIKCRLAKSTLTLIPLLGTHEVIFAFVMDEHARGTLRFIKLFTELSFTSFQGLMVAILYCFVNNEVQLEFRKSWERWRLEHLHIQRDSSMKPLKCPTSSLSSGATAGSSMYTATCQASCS
Background: A reporter such as luciferase makes a cellular process visible.

Series [3] has as its target T1, human GLP1R. As to the kind of experiment: Human GLP1R cAMP accumulation assay. Format: cell-based. More on the design: HEK293 cells over-expressing full length human GLP-1R were utilized; expressed in transfected cells; host or cells: HEK293 (HEK293/hGLP1R). Particulars: HEK293/hGLP1R cells; Table 4; read-out: cAMP EC50. An outline of the steps:
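cAMP accumulation measured after 30 min at 23° C, with 500 μM IBMX in HEPES-buffered HBSS plus 0.1% BSA, in HEK293 cells expressing full-length hGLP-1R. Levels read by D2-cAMP/antibody immunoassay via standard curve, scaled between low and high controls. EC50 fitted four-parameter over a 10-point curve.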
(In general: Changes in cAMP serve as a functional read-out for many G protein-coupled receptors.)

Series [4] deals with hERG potassium channels (Homo sapiens, UniProt Q12809). As to the kind of experiment: cell-based. The protocol:
For the assay, CHO cells stably expressing hERG potassium channels were plated and cultured for at least 2 days in a humidified and air-controlled (5% CO2) incubator at 37° C. prior to use in electrophysiological experiments. Cells were then harvested using TrypLE and resuspended in physiological solution (10 mM HEPES, 80 mM NaCl, 4 mM KCl, 2 mM CaCl2, 1 mM MgCl2, 5 mM Glucose, 60 mM NM DG, pH 7.4). Test compounds were dissolved in water to obtain stock solutions for different test concentrations. […] One 40 μL addition of the vehicle was applied, followed by a 300s baseline recording period. […] Recordings were required to pass quality control over the duration of the recording or the well was abandoned, and the compound was retested, all automatically set by PatchControl. […] A minimum of 2 replicates per concentration were obtained. […] Curve-fitting and IC50 value calculations were performed by GraphPad Prism 5.0.

The subject of series [5] is HEK293/CRE-Luc cells. In words: Luciferase reporter assay, HEK293/CRE-Luc cells without GLP1R (Example 17). Format: cell-based, human. A digest of the protocol: as §1
For series [6], the target named is T1, human GLP1R. As to the kind of experiment: CRE-Luc cAMP reporter assay, HEK293/CRE-Luc/hGLP1R (Example 24). The series is classed as cell-based. More on the design: engineered to express full-length human GLP1R, cynomolgus GLP1R; expressed in transfected cells; host or cells: HEK293/CRE-Luc. Particulars: HEK293, read-out: HEK293/CRE-Luc/hGLP1R Emax (% GLP-1). The text has this: To test the activity of GLP1R agonist payloads, GLP1R agonist linker-payloads (LPs), and anti-GLP1R antibody-tethered ligands (ATLs) of the invention, a cell-based cAMP responsive luciferase reporter assay was developed. To generate the assay cell line, the firefly luciferase gene was placed under the control of a cAMP response element (CRE) located upstream of a minimal promoter and transfected into HEK293 cells and referred to herein as HEK293/CRE-Luc cells. HEK293/CRE-Luc cells were then engineered to express full-length human GLP1R (HEK293/CRE-Luc/hGLP1R), cynomolgus GLP1R (HEK293/CRE-Luc/mfGLP1R), or mouse GLP1R (HEK293/CRE-Luc/mGLP1R).
Serial dilutions of free payload and linker payloads (LP) were performed in 100% DMSO (ATCC, #4-X-5), followed by 1:100 dilution in assay media. Test articles were added to cells (1:5 dilution) with the last well in each serial dilution series serving as a blank control containing only assay media for antibodies and ATLs or assay media with 0.2% DMSO for payloads and LPs. After a 5-hour incubation at 37° C., luciferase activity was determined by addition of ONE-Glo reagent (Promega, #E6130) followed by measurement of relative light units (RLUs) on an EnVision Plate Reader (Perkin Elmer).
(§2) EC50 values for luminescence assays were determined using a four-parameter logistic equation over a 12-point dose response curve (GraphPad Prism).

Series [7] has as its target T1, human GLP1R. As to the kind of experiment: b-arrestin 2 recruitment assay, PathHunter CHO/b-arrestin 2/hGLP1R cells. The series is classed as cell-based. Particulars: read-out: CHO/b-arrestin 2/hGLP1R Emax (% GLP-1). The protocol:
The b-arrestin 2 recruitment assay was performed following manufacter's instructions (Eurofins DiscoverX, #93-0300E2CP0M), with minor modifications. […] Serial dilutions of free payload and LP were performed in 100% DMSO, followed by 1:100 dilution in assay media. Test articles were added to cells (1:5 dilution) with the last well in each serial dilution series serving as a blank control containing only assay media for antibodies and ATLs or assay media with 0.2% DMSO for payload and LP. After a 90-minute incubation at 37° C., PathHunter Detection Reagent (Eurofins DiscoverX, #93-0300E2CP0M) was added to the wells followed by a 1-hour incubation at room temperature. RLUs were measured on EnVision Plate Reader (Perkin Elmer).
as §2

Where [8] appears, read: highest RLU / RLU of untreated wells.
Setting [9] is: relative to M2361 of the same experiment.
Where [10] appears, read: HEK293/CRE-Luc cells without hGLP1R, payloads and linker-payloads.
Where [11] appears, read: ATDCs and references (Table 27).

Chain of hERG potassium channels (Q12809 whole entry): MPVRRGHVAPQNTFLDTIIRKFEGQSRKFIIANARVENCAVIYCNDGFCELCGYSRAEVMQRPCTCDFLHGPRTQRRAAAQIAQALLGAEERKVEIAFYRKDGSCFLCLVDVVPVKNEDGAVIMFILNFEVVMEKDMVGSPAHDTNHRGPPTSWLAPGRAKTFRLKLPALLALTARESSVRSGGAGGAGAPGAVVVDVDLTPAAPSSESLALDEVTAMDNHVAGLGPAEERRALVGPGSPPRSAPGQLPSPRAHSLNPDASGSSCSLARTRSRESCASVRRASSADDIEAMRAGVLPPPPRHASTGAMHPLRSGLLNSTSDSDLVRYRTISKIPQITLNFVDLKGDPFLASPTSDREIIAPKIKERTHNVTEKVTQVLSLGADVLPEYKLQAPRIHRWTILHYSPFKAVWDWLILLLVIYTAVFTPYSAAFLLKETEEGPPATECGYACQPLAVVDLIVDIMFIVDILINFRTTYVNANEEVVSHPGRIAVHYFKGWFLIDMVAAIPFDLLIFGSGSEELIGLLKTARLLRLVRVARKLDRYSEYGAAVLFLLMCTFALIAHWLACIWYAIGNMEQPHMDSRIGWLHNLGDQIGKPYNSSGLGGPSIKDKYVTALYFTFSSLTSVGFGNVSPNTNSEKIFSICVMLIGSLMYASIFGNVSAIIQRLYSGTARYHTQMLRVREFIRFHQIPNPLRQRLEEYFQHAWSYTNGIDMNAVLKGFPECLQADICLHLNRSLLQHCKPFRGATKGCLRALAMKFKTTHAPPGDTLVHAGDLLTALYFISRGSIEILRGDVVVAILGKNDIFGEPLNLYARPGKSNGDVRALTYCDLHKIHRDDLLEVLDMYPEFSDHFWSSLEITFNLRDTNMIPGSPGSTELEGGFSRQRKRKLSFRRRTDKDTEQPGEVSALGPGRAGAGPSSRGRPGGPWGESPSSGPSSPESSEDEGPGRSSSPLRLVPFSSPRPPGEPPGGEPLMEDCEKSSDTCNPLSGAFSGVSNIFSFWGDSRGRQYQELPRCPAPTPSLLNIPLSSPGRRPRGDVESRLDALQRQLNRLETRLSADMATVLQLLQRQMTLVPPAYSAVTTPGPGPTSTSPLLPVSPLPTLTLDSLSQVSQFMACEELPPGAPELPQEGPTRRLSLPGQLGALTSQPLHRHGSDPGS

Compound `CCc1cc(OCCCCNC(=O)CCOCCOCCOCCOCCOCCOCCOCCOCCNC(=O)CCC(=O)N2Cc3ccccc3C#Cc3ccccc32)ccc1-c1ccc(C[C@H](NC(=O)[C@H](CC(=O)O)NC(=O)[C@H](CO)NC(=O)[C@@H](NC(=O)[C@](C)(Cc2ccccc2F)NC(=O)[C@@H](NC(=O)CNC(=O)[C@H](Cc2nn[nH]n2)NC(=O)C(C)(C)C(=O)NCCc2cnc[nH]2)[C@@H](C)O)[C@@H](C)O)C(=O)N[C@@H](CCCc2cc(C)cc(C)c2)C(N)=O)cc1` [LP2, DIBAC-suc-PEG8-P9] ({Malonyl(2,2-Me2,histaminyl)}-[Ala(1H-tetrazol-5-yl)]GT[αMePhe(2-F)]TSD[Bip(2'-Et-4'-O(CH2)4NH2)]([PEG8-Suc-DBCO])[Nva(5-(3,5-Me2Ph))]-NH2) came in with a solubility in series [1] of at least 0.06 µM. In series [2] (setting [8]), this compound displayed a S/N of 323.1. For the same compound, in series [2], the EC50 was determined as 0.0742 nM. In series [2] (setting [9]), the “Relative Potency (% M2361 EC50)” value is on record as 36.8% and the “Relative Signal:Noise (% M2361)” value is 137.0%.
On to `CCc1cc(OCCCCn2cc(COCCOCCOCCOCCNC(=O)COC3C#CCCCCC3)nn2)ccc1-c1ccc(C[C@H](NC(=O)[C@H](CC(=O)O)NC(=O)[C@H](CO)NC(=O)[C@@H](NC(=O)[C@](C)(Cc2ccccc2F)NC(=O)[C@@H](NC(=O)CNC(=O)[C@H](Cc2nn[nH]n2)NC(=O)C(C)(C)C(=O)NCCc2cnc[nH]2)[C@@H](C)O)[C@@H](C)O)C(=O)N[C@@H](CCCc2cc(C)cc(C)c2)C(N)=O)cc1` (stereo partly shown) [LP10, COT-PEG4-triazole-P8], for which the EC50 is 0.982 nM in series [3]; over 200 nM in series [5] (HEK293/CRE-Luc cells without hGLP1R, payloads and linker-payloads, read-out: EC50); 0.0391 nM in series [2]. This compound had an IC50 in series [4] of over 100000 nM. For the same compound, the figures for the S/N in series [5] (setting [10]) and in series [2] (setting [8]) were 1.1 and 51.7, respectively. The “Relative Potency (% M2361 EC50)” value in series [2] (setting [9]) came to 13.6%. Moreover, the “Relative Signal:Noise (% M2361)” value in series [2] (setting [9]) was determined as 78.7%.
With `CCc1cc(OCCCCN=[N+]=[N-])ccc1-c1ccc(C[C@H](NC(=O)[C@H](CC(=O)O)NC(=O)[C@H](CO)NC(=O)[C@@H](NC(=O)[C@](C)(Cc2ccccc2F)NC(=O)[C@@H](NC(=O)CNC(=O)[C@H](Cc2nn[nH]n2)NC(=O)C(C)(C)C(=O)NCCc2cnc[nH]2)[C@@H](C)O)[C@@H](C)O)C(=O)N[C@@H](CCCc2cc(C)cc(C)c2)C(N)=O)cc1` [M2361] ({Malonyl(2,2-Me2,histaminyl)}-[Ala(1H-tetrazol-5-yl)]GT[αMePhe(2-F)]TSD[Bip(2'-Et,4'-O(CH2)4N3)][Nva(5-(3,5-Me2Ph))]-NH2), the Emax in series [6] was 95.8%; in series [7] it was 107%. For the same compound, the S/N in series [5] (HEK293/CRE-Luc cells without hGLP1R, ATDCs and references (Table 27)) is 1.3; in series [5] (setting [10]), 1.5 and 1.3; in series [2] (setting [11]), 64.3. Also, the EC50 in series [5] (HEK293/CRE-Luc cells without hGLP1R, ATDCs and references (Table 27), read-out: EC50) is over 20 nM; in series [5] (Table 28, reporter cells without GLP1R, read-out: HEK293/CRE-Luc EC50), over 200 nM; in series [5] (Table 29, reporter cells without GLP1R, read-out: HEK293/CRE-Luc EC50) it was over 30 nM. The “Relative Potency (% M2361 EC50)” value in series [2] (setting [11]) and in series [2] (setting [9]) was 100.0% throughout. The “Relative Signal:Noise (% M2361)” value in series [2] (setting [11]) and in series [2] (setting [9]) was 100.0% throughout.

The term solubility denotes the concentration that dissolves in the medium under given conditions. The term IC50 denotes the concentration that inhibits the measured activity by half. A low value points to inhibition by little substance.
